Assay results taken from US11207301B2, “Sphingosine 1 phosphate receptor agonists for neuroprotection” (RECEPTOS LLC, priority 2017, dated 2021).

Assays:
Format in all cases: cell-based
[1] = system: ERK phosphorylation in primary human astrocytes; assay: ERK phosphorylation in primary human cortical astrocytes (AlphaLISA SureFire Ultra); conditions: 10-minute exposure, n=3-5
Method: (§1) For the experiments using mouse and human primary astrocytes, ten-point concentration-response curves (90 nM-4.57 pM or 30 nM-1.52 pM) were generated for AKT and/or ERK phosphorylation in primary human and mouse cortical astrocytic cultures in response to a 10-minute treatment with ozanimod, Compound 3, Compound 1, or FTY720-P. AKT and ERK phosphorylation were quantified using AlphaLISA SureFire Ultra Assay kits and the EnVision Plate Reader. AKT and ERK phosphorylation within treated astrocytes were expressed as the mean change in signal intensity compared to the dimethyl sulfoxide (DMSO) vehicle and the half maximal effective concentration (EC50) was determined using non-linear regression.
Primary human astrocytes were purchased from ScienCell Research Laboratories, Inc. and cultured according to the supplier's protocol. The astrocytes were obtained from the human cerebral cortex, cryopreserved at passage one, and delivered frozen. The frozen vials of cells were gently thawed in a 37° C. water bath. Once the contents of the vial were completely thawed, the cell solution was dispensed into a poly-L-lysine (PLL) coated T75 tissue culture flask with 16 mL of human Astrocyte Media, (ScienCell Research Laboratories, Inc.) and incubated at 37° C. 5% CO2. Once the human astrocytes had reached confluency in the T75 flask, they were detached using trypsin/EDTA 0.25%, pelleted at 300×g, split into two PLL coated T225 tissue culture flasks in 40 mL of astrocyte media, and incubated at 37° C. 5% CO2. Once the astrocytes reached confluency in the T225 flasks, they were detached using trypsin/EDTA 0.25% solution, pelleted at 300×g, plated into poly-D-lysine (PDL) coated 96-well plates at a density of 10,000 cells per well in 200 μL human Astrocyte Media, and incubated at 37° C. 5% CO2. Half of the media was replenished every 3-4 days. After 5-7 days of incubation, the P2 human astrocyte plates were utilized for the pERK and pAKT assays.
(§2) Cell lysis and detection of pERK were performed according to the PerkinElmer AlphaLISA SureFire Ultra p-ERK1/2 (Thr202/TYR 204) assay protocol. Astrocytes were lysed in the 96-well plate following a 10 minute incubation with compounds with shaking at RT. The astrocytic lysates (10 μL/well) were transferred into a 384-well OptiPlate. As specified by the assay protocol, an acceptor bead mix and a donor bead mix (5 μL/well for each) were added to the plate under subdued light. Plates were sealed with adhesive plate seals and incubated in the dark for 2 hours at RT. The plates were read on the EnVision Plate Reader to assess the pERK levels.
(§3) The AKT and ERK phosphorylation data, collected by a Perkin Elmer EnVision Microplate Reader, was analyzed by non-linear regression (GraphPad Prism, version 7.03) to determine the EC50 values.

[2] = system: AKT phosphorylation in primary mouse astrocytes; assay: AKT phosphorylation in primary mouse cortical astrocytes (AlphaLISA SureFire Ultra); conditions: 10-minute exposure, mean of n=3
Method: as §1
(§4) Timed pregnant (E16) C57BL/6J female mice arrive to the test facility on a weekly basis and were housed and cared for according to appropriate protocols for this model. Primary mouse cortical astrocytes are harvested from P0-P2 pups. The newly born animals were deeply anesthetized on ice, decapitated, and the brains were rapidly removed and stored in ice-cold NbAstro media (BrainBits, LLC). Cells were dissociated from freshly dissected cortices by mechanical disruption in the presence of trypsin and DNase. Cells were put into a PDL coated T75 tissue culture flask containing 16 mL NbAstro Media and incubated at 37° C. 5% CO2. Once the mouse astrocytes had reached confluency in the T75 flask, they were detached using TripLE detachment reagent, pelleted at 300×g, expanded into two T225 PDL coated tissue culture flasks containing 40 mL of NbAstro and incubated at 37° C. 5% CO2. Once the astrocytes reached confluency in the T225 flasks they were detached using TrypLE detachment reagent, pelleted at 300×g, plated into PDL coated 96-well plates at a density of 10,000 cells per well in 200 μL NbAstro and incubated at 37° C. 5% CO2. Half of the media was replenished every 3-4 days. After 5-7 days of incubation, the P2 mouse astrocyte plates were utilized for the pERK and pAKT assays.
as §2, with “pAKT” for “pERK”, “pAKT1/2/3 ([…])” for “p-ERK1/2 (Thr202/TYR 204)”, “room temperature (RT).” for “RT.”, “Plates were sealed with adhesive plate seals and incubated in the dark for 2 hours at RT.” left out
as §3

[3] = system: ERK phosphorylation in primary mouse astrocytes; assay: ERK phosphorylation in primary mouse cortical astrocytes (AlphaLISA SureFire Ultra); conditions: 10-minute exposure
Method: as §1
as §4, with “Once the astrocytes reached confluency in the T225 flasks they were detached using TrypLE detachment reagent, pelleted at 300×g, plated into PDL coated 96-well plates at a density of 10,000 cells per well in 200 μL NbAstro and incubated at 37° C. 5% CO2. Half of the media was replenished every 3-4 days. After 5-7 days of incubation, the P2 mouse astrocyte plates were utilized for the pERK and pAKT assays.” left out
Cell lysis and detection of pERK were performed according to the PerkinElmer AlphaLISA SureFire Ultra p-ERK1/2 (Thr202/TYR 204) assay protocol. […] The plates were read on the EnVision Plate Reader to assess the pERK levels.
as §3

[4] = system: AKT phosphorylation in primary rat astrocytes; assay: AKT phosphorylation in primary rat astrocytes (MSD pAKT assay); conditions: 10-minute exposure, mean of n=4
Method: (§5) For the experiments using rat primary astrocytes, eight-point concentration-response curves were generated for AKT and ERK phosphorylation in primary rat astrocytes cultures in response to a 10-minute treatment with ozanimod (100 nM-46 pM), Compound 3 (10 nM-5 pM), Compound 1 (10 nM-5 pM), or FTY720-P (10 nM-5 pM). Phosphorylation of AKT and ERK was quantified using Meso Scale Discovery assay kits (MSD Mutli-Spot Phopho-AKT (Ser473) Assay Kit and MSD Multi-Spot MAP Kinase Phosphoprotein Assay Whole Cell Lysate Kit) and imaging platform. AKT and ERK phosphorylation within treated astrocytes were assessed as the mean change in signal intensity compared to DMSO vehicle and the half maximal effective concentration (EC50) was determined using non-linear regression.
(§6) Embryonic day18 (E18) rat cortices were purchased from BrainBits LLC. (Springfield, Ill.) and were cultured according to the supplier's protocol. Briefly, cortices were incubated at 37° C. for 10 minutes in activated papain solution before trituration in hibernation medium containing B27 supplement using a modified siliconized glass Pasteur pipette. The cell suspension was centrifuged at 1100×g for 1 minute at room temperature (RT). The cell pellet was then resuspended in NbAstro medium (BrainBits LLC.) and the live cell density was assessed using a cell counter. Primary cells were plated at a density of 7500 cells/cm2 in T75 tissue culture flasks coated with poly-D-lysine (PDL) in a total volume of 12 mL of NbAstro media, and incubated for 10-14 days at 37° C. 5% CO2. After 10-14 days, primary astrocytes in passage 0 (P0) that had reached confluency in the T75 flasks were detached using TrypLE detachment reagent, pelleted at 300×g, and plated into poly-d-lysine coated T225 flasks in 20 mL of NbAstro media, and incubated for another 7 days at 37° C. 5% CO2. After 7 days, primary P1 astrocytes in confluent T225 flasks were detached using TrypLE detachment reagent, pelleted at 300×g, and plated intopoly-d-lysine coated 96-well plates at 10,000 cells per well in 200 μL of NbAstro media, and incubated for 7 days at 37° C. 5% CO2. After 7 days, P2 primary astrocytes were utilized for pAKT and pERK assays.
(§7) The pAKT (phosphorylated AKT) assay was performed according to the manufacturer's protocol. Briefly, MSD pAKT plates were blocked for 1-2 hours by adding 150 μL of blocker A prepared in 1× Tris wash buffer. […] Following antibody incubation, plates were washed three times with 150 μL of 1× Tris wash buffer and 1× read buffer (150 μL/well) was added. Finally, plates were read in the MSD imager platform to assess pAKT levels.
(§8) AKT and ERK phosphorylation data were analyzed by non-linear regression (GraphPad Prism, version 6) to determine the EC50 values.

[5] = system: ERK phosphorylation in primary rat astrocytes; assay: ERK phosphorylation in primary rat astrocytes (MSD pERK assay); conditions: 10-minute exposure, mean of n=3
Method: as §5, §6
as §7, with “The pERK” for “The pAKT”, “(phosphorylated ERK)/pMAPkinase” for “(phosphorylated AKT)”, “MSD pERK/pMAPkinase” for “MSD pAKT”, “Finally, the” for “Finally,”, “assess the pERK” for “assess pAKT”
as §8

Which EC50 [1] does the source give for `CCCCCCCCc1ccc(CC[C@](N)(CO)COP(=O)(O)O)cc1` [FTY720-P, reference compound] here?
Its EC50 is 0.73 nM.

What about the EC50 [2] of the same molecule?
The EC50 was 0.09 nM.

And the EC50 [3]?
Its EC50 is 0.14 nM.

What about the EC50 [4] of the same molecule?
The EC50 was 0.17 nM.

And the EC50 [5]?
Its EC50 is 0.16 nM.
